Results: ChEMBL document CHEMBL1131993, “Binding affinities of 3-(3-phenylisoxazol-5-yl)methylidene-1-azabicycles to acetylcholine receptors” (Bioorg Med Chem Lett, 1999)
Each block holds one compound with its values, some of them ahead of it.

Columns and labels:
[1] = target: T1, Muscarinic acetylcholine receptor M2 (Homo sapiens) (UniProt P08172); assay: Ability to displace [3H]N-methylscopolamine binding to M2 human recombinant muscarinic receptor in CHO cells at concentration 10 uM; type: cell-based
T1 sequence (whole entry): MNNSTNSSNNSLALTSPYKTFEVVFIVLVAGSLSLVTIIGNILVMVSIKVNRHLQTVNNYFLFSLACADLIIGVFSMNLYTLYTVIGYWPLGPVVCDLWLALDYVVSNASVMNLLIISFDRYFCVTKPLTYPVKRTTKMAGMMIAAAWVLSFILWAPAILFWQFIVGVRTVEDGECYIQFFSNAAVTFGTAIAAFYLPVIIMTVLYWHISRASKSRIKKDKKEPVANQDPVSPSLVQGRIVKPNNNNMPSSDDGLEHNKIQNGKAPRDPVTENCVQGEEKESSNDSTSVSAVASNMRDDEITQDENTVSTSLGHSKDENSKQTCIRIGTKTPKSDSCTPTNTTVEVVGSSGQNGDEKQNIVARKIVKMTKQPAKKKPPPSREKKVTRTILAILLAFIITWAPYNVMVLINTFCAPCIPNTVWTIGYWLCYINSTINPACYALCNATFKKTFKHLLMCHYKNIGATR

[2] = target: T1, Muscarinic acetylcholine receptor M2 (Homo sapiens); assay: Ability to displace [3H]N-methylscopolamine binding to M2 human recombinant muscarinic receptor in CHO cells at concentration 1 uM; type: cell-based
[3] = target: Neuronal acetylcholine receptor (Rattus norvegicus) (UniProt P04757+P09483+P12389+P12390+P12392+P43144+Q9JLB5+P12391+P43143+P20420+Q05941); assay: Ability to displace [3H]cytisine binding to nicotinic receptor in synaptic membrane fractions from rat cerebral cortices at a concentration of 10 uM.; type: cell membranes
[4] = target: T2, Muscarinic acetylcholine receptor M1 (Homo sapiens) (UniProt P11229); assay: Ability to displace [3H]N-methylscopolamine binding to M1 human recombinant muscarinic receptor in CHO cells at concentration 1 uM; type: cell-based
T2 sequence (whole entry): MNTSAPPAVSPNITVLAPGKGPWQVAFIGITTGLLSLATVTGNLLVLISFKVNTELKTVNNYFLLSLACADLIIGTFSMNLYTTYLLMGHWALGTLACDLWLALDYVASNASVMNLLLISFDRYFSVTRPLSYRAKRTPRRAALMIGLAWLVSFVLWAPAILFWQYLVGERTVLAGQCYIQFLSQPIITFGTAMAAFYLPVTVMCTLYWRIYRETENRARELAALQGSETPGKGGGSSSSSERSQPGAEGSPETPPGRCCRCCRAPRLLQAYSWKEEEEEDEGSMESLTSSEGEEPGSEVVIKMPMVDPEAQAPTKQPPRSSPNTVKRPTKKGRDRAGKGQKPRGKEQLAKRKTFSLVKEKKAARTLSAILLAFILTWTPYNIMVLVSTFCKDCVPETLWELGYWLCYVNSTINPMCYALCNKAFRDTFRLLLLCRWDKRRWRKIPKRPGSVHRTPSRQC

[5] = target: Muscarinic acetylcholine receptor M3 (Homo sapiens) (UniProt P20309); assay: Ability to displace [3H]N-methylscopolamine binding to M3 human recombinant muscarinic receptor in CHO cells at concentration 1 uM; type: cell-based
[6] = target: T2, Muscarinic acetylcholine receptor M1 (Homo sapiens); assay: Ability to displace [3H]N-methylscopolamine binding to M1 human recombinant muscarinic receptor in CHO cells at concentration 10 uM; type: cell-based
[7] = target: Muscarinic acetylcholine receptor M3 (Homo sapiens) (UniProt P20309); assay: Ability to displace [3H]N-methylscopolamine binding to M3 human recombinant muscarinic receptor in CHO cells at concentration 10 uM; type: cell-based

Muscarinic acetylcholine receptor M3 (Homo sapiens), sequence (P20309 whole entry, looked up): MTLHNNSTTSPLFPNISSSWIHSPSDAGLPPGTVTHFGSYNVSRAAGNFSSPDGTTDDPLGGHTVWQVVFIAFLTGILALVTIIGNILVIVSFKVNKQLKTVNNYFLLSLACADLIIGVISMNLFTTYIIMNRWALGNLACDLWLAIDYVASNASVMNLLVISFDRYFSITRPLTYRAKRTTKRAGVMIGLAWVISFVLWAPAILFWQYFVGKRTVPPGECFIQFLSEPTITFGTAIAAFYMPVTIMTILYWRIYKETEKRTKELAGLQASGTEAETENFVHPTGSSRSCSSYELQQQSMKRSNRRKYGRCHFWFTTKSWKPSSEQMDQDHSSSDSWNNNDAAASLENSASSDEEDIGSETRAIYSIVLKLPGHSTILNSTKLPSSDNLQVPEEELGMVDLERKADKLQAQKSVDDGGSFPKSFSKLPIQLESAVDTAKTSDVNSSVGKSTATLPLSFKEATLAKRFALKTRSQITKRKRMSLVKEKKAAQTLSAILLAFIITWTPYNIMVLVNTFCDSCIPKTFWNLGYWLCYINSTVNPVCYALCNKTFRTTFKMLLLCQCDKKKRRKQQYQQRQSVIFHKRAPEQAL

SMILES: COc1ccc(-c2cc(/C=C3\CN4CCC3CC4)on2)cc1
inhibition [1]: 19% | inhibition [2]: 10% | inhibition [3]: 25% | inhibition [4]: 0% | inhibition [5]: 3% | inhibition [6]: 21% | inhibition [7]: 18%

inhibition [1]: 23% | inhibition [2]: 3% | inhibition [3]: 74% | inhibition [4]: 0% | inhibition [5]: 26% | inhibition [6]: 58% | inhibition [7]: 35%
SMILES: CC(C)(C)OC(=O)Nc1ccc(-c2cc(/C=C3/CN4CCC3C4)on2)cc1 (centres undefined)

SMILES: Fc1ccc(-c2cc(/C=C3/CN4CCC3CC4)on2)cc1
inhibition [3]: 19% | inhibition [4]: 0% | inhibition [6]: 6%

SMILES: COc1ccc(-c2cc(/C=C3/CN4CCC3CC4)on2)cc1
inhibition [1]: 63% | inhibition [2]: 16% | inhibition [3]: 68% | inhibition [4]: 23% | inhibition [5]: 14% | inhibition [6]: 79% | inhibition [7]: 63%

SMILES: Fc1ccc(-c2cc(/C=C3\CN4CCC3CC4)on2)cc1
inhibition [1]: 22% | inhibition [2]: 13% | inhibition [3]: 19% | inhibition [4]: 0% | inhibition [5]: 0% | inhibition [6]: 0% | inhibition [7]: 10%

SMILES: C(=C1\CN2CCC1CC2)/c1cc(-c2ccccc2)no1
inhibition [1]: 38% | inhibition [2]: 0% | inhibition [3]: 48% | inhibition [4]: 7% | inhibition [5]: 12% | inhibition [6]: 51% | inhibition [7]: 48%

SMILES: Nc1ccc(-c2cc(/C=C3/CN4CCC3C4)on2)cc1 (centres undefined)
inhibition [1]: 4% | inhibition [2]: 1% | inhibition [3]: 49% | inhibition [4]: 7% | inhibition [5]: 0% | inhibition [6]: 44% | inhibition [7]: 10%

inhibition [3]: 0% | inhibition [4]: 39% | inhibition [6]: 66%
SMILES: COc1ccc(COc2ccc(-c3cc(/C=C4/CN5CCC4C5)on3)cc2)cc1 (centres undefined)

SMILES: Cc1ccc(-c2cc(/C=C3\CN4CCC3CC4)on2)cc1
inhibition [1]: 13% | inhibition [2]: 0% | inhibition [3]: 26% | inhibition [4]: 0% | inhibition [5]: 0% | inhibition [6]: 0% | inhibition [7]: 0%

inhibition [1]: 53% | inhibition [2]: 10% | inhibition [3]: 75% | inhibition [4]: 3% | inhibition [5]: 0% | inhibition [6]: 53% | inhibition [7]: 53%
SMILES: CC(C)(C)OC(=O)Nc1ccc(-c2cc(/C=C3\CN4CCC3C4)on2)cc1 (centres undefined)

SMILES: Oc1ccc(-c2cc(/C=C3/CN4CCC3C4)on2)cc1O (centres undefined)
inhibition [1]: 9% | inhibition [2]: 6% | inhibition [3]: 64% | inhibition [4]: 0% | inhibition [5]: 0% | inhibition [6]: 16% | inhibition [7]: 0%

SMILES: C(=C1/CN2CCC1CC2)/c1cc(-c2ccccc2)no1
inhibition [1]: 26% | inhibition [2]: 3% | inhibition [4]: 0% | inhibition [5]: 5% | inhibition [6]: 13% | inhibition [7]: 17%

SMILES: Oc1ccc(-c2cc(/C=C3\CN4CCC3C4)on2)cc1O (centres undefined)
inhibition [1]: 0% | inhibition [2]: 0% | inhibition [4]: 0% | inhibition [5]: 0% | inhibition [6]: 0% | inhibition [7]: 0%

SMILES: Oc1ccc(-c2cc(/C=C3/CN4CCC3C4)on2)cc1 (centres undefined)
inhibition [1]: 3% | inhibition [2]: 6% | inhibition [3]: 81% | inhibition [4]: 0% | inhibition [5]: 0% | inhibition [6]: 26% | inhibition [7]: 11%

SMILES: COc1ccc(-c2cc(/C=C3/CN4CCC3CC4)on2)cc1OC
inhibition [1]: 71% | inhibition [2]: 30% | inhibition [3]: 90% | inhibition [4]: 28% | inhibition [5]: 6% | inhibition [6]: 81% | inhibition [7]: 46%

SMILES: Oc1ccc(-c2cc(/C=C3\CN4CCC3CC4)on2)cc1
inhibition [1]: 7% | inhibition [2]: 0% | inhibition [3]: 72% | inhibition [4]: 0% | inhibition [5]: 0% | inhibition [6]: 2% | inhibition [7]: 0%

SMILES: Cc1ccc(-c2cc(/C=C3/CN4CCC3CC4)on2)cc1
inhibition [1]: 14% | inhibition [2]: 2% | inhibition [3]: 70% | inhibition [4]: 7% | inhibition [5]: 3% | inhibition [6]: 7% | inhibition [7]: 15%
